# System: cells
# Experiment: cellular adherence to alginate, cell type not stated
# Assay type: cell-based
# Conditions: lidocaine present with poloxamer
smiles,measurement,value
CCN(CC)CC(=O)Nc1c(C)cccc1C [lidocaine],cellular adherence properties of alginate,"reduce the cellular adherence properties of alginate, for example, still further"
